Data from patent US9255090B2, “Heterocyclyl derivatives and their use as prostaglandin D2 receptor modulators” (Actelion Pharmaceuticals Ltd., priority 2012, dated 2016).

Target: hCRTH2 receptor (Homo sapiens (Human), UniProt Q9Y5Y4)
Test: hCRTH2 receptor membranes radioligand (3H-PGD2) displacement assay
Format: binding
Conditions: 3H-PGD2 radioligand displacement, HEK293-hCRTH2 membranes
Procedure, shortened: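 HEK293-hCRTH2 membranes, 20 μg/well; 3H-PGD2 added at 2.5 nM; binding buffer 50 mM Tris, 10 mM MnCl2, 1 mM EDTA, pH 7.0; 90 min RT; GF/C filtration, scintillation count. Nonspecific binding: PGD2 at […].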

Sequence of hCRTH2 receptor (Q9Y5Y4 whole entry): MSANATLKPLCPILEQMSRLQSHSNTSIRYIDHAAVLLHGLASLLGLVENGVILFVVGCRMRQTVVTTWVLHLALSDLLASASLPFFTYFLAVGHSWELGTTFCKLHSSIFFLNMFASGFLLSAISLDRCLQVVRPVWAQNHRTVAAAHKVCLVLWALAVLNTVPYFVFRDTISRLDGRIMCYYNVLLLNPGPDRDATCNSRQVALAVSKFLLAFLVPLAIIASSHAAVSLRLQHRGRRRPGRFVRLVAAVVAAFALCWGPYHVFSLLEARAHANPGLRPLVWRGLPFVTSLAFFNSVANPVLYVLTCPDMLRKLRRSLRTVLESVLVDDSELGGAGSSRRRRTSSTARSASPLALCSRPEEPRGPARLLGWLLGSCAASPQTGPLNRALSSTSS

IC50	Compound
10.5 nM	COc1ccc(CC(=O)O)cc1-c1ccc(Cl)c2c1CN(C(=O)CCCc1ccccc1F)CC2 [Example 74, (3-{5-Chloro-2-[4-(2-fluoro-phenyl)-butyryl]-1,2,3,4-tetrahydro-isoquinolin-8-yl}-4-methoxy-phenyl)-acetic acid]
38.4 nM	COc1ccc(CC(=O)O)cc1-c1ccc(Cl)c2c1CN(C(=O)CCc1cn(C)c3ccccc13)CC2 [Example 75, (3-{5-Chloro-2-[3-(1-methyl-1H-indol-3-yl)-propionyl]-1,2,3,4-tetrahydro-isoquinolin-8-yl}-4-methoxy-phenyl)-acetic acid]
43.1 nM	COc1ccc(CC(=O)O)cc1-c1ccc(Cl)c2c1CN(C(=O)CCc1ccccc1)CC2 [Example 76, {3-[5-Chloro-2-(3-phenyl-propionyl)-1,2,3,4-tetrahydro-isoquinolin-8-yl]-4-methoxy-phenyl}-acetic acid]
24 nM	COc1ccc(CC(=O)O)cc1-c1ccc(Cl)c2c1CN(C(=O)CCN1CCCc3ccccc31)CC2 [Example 77, {3-[5-Chloro-2-(3-3,4-dihydro-2H-quinolin-1-yl-propionyl)-1,2,3,4-tetrahydro-isoquinolin-8-yl]-4-methoxy-phenyl}-acetic acid]
61.5 nM	COc1ccc(CC(=O)O)cc1-c1ccc(Cl)c2c1CN(C(=O)CCN1CCc3ccccc31)CC2 [Example 78, {3-[5-Chloro-2-(3-2,3-dihydro-indol-1-yl-propionyl)-1,2,3,4-tetrahydro-isoquinolin-8-yl]-4-methoxy-phenyl}-acetic acid]
37.8 nM	COc1ccc(CC(=O)O)cc1-c1ccc(Cl)c2c1CN(C(=O)CCc1c(C)[nH]c3ccccc13)CC2 [Example 79, (3-{5-Chloro-2-[3-(2-methyl-1H-indol-3-yl)-propionyl]-1,2,3,4-tetrahydro-isoquinolin-8-yl}-4-methoxy-phenyl)-acetic acid]
33.1 nM	COc1ccc(CC(=O)O)cc1-c1ccc(F)c2c1CN(C(=O)[C@H]1C[C@@H]1c1ccccc1)CC2 [Example 81, {3-[5-Fluoro-2-((1S,2S)-2-phenyl-cyclopropanecarbonyl)-1,2,3,4-tetrahydro-isoquinolin-8-yl]-4-methoxy-phenyl}-acetic acid]
250 nM	COc1ccc(CC(=O)O)cc1-c1ccc(C(F)(F)F)c2c1CN(C(=O)C1CC1)CC2 [Example 82, [3-(2-Cyclopropanecarbonyl-5-trifluoromethyl-1,2,3,4-tetrahydro-isoquinolin-8-yl)-4-methoxy-phenyl]-acetic acid]
35.8 nM	COc1ccc(CC(=O)O)cc1-c1ccc(F)c2c1CN(C(=O)/C=C/c1ccccc1)CC2 [Example 85, (3-{5-Fluoro-2-[(E)-(3-phenyl-acryloyl)]-1,2,3,4-tetrahydro-isoquinolin-8-yl}-4-methoxy-phenyl)-acetic acid]
70.5 nM	COc1ccc(/C=C/C(=O)N2CCc3c(F)ccc(-c4cc(CC(=O)O)ccc4OC)c3C2)cn1 [Example 86, (3-{5-Fluoro-2-[(E)-3-(6-methoxy-pyridin-3-yl)-acryloyl]-1,2,3,4-tetrahydro-isoquinolin-8-yl}-4-methoxy-phenyl)-acetic acid]
93.8 nM	COc1ccc(CC(=O)O)cc1-c1ccc(F)c2c1CN(C(=O)/C=C/c1sc(C)nc1C)CC2 [Example 87, (3-{2-[(E)-3-(2,4-Dimethyl-thiazol-5-yl)-acryloyl]-5-fluoro-1,2,3,4-tetrahydro-isoquinolin-8-yl}-4-methoxy-phenyl)-acetic acid]
9.14 nM	COc1ccc(CC(=O)O)cc1-c1ccc(F)c2c1CN(C(=O)/C=C/c1nc3ccccc3s1)CC2 [Example 88, {3-[2-((E)-3-Benzothiazol-2-yl-acryloyl)-5-fluoro-1,2,3,4-tetrahydro-isoquinolin-8-yl]-4-methoxy-phenyl}-acetic acid]
57.2 nM	COc1ccc(CC(=O)O)cc1-c1ccc(F)c2c1CN(C(=O)/C=C/c1cccnc1)CC2 [Example 89, {3-[5-Fluoro-2-((E)-3-pyridin-3-yl-acryloyl)-1,2,3,4-tetrahydro-isoquinolin-8-yl]-4-methoxy-phenyl}-acetic acid]
49.1 nM	COc1ccc(CC(=O)O)cc1-c1ccc(F)c2c1CN(C(=O)/C=C/c1cc(C)nn1C)CC2 [Example 90, (3-{2-[(E)-3-(2,5-Dimethyl-2H-pyrazol-3-yl)-acryloyl]-5-fluoro-1,2,3,4-tetrahydro-isoquinolin-8-yl}-4-methoxy-phenyl)-acetic acid]
32.1 nM	COc1ccc(CC(=O)O)cc1-c1ccc(F)c2c1CN(C(=O)CCc1ccccn1)CC2 [Example 91, {3-[5-Fluoro-2-(3-pyridin-2-yl-propionyl)-1,2,3,4-tetrahydro-isoquinolin-8-yl]-4-methoxy-phenyl}-acetic acid]
15.7 nM	COc1ccc(CC(=O)O)cc1-c1ccc(F)c2c1CN(C(=O)CCc1cccc(C)n1)CC2 [Example 92, (3-{5-Fluoro-2-[3-(6-methyl-pyridin-2-yl)-propionyl]-1,2,3,4-tetrahydro-isoquinolin-8-yl}-4-methoxy-phenyl)-acetic acid]

IC50	Compound
690 nM	COc1ccc(CC(=O)O)cc1-c1ccc(F)c2c1CN(C(=O)CCc1ncccn1)CC2 [Example 93, {3-[5-Fluoro-2-(3-pyrimidin-2-yl-propionyl)-1,2,3,4-tetrahydro-isoquinolin-8-yl]-4-methoxy-phenyl}-acetic acid]
418 nM	COc1ccc(CC(=O)O)cc1-c1ccc(F)c2c1CN(C(=O)COc1cccnc1)CC2 [Example 94, (3-{5-Fluoro-2-[2-(pyridin-3-yloxy)-acetyl]-1,2,3,4-tetrahydro-isoquinolin-8-yl}-4-methoxy-phenyl)-acetic acid]
414 nM	COc1ccc(CC(=O)O)cc1-c1ccc(F)c2c1CCN(C(=O)[C@@H]1C[C@H]1c1ccccc1)C2 [Example 99, {3-[8-Fluoro-2-((1R,2R)-2-phenyl-cyclopropanecarbonyl)-1,2,3,4-tetrahydro-isoquinolin-5-yl]-4-methoxy-phenyl}-acetic acid]
105 nM	COc1ccc(CC(=O)O)cc1-c1ccc(F)c2c1CCN(C(=O)CCCc1ccccc1)C2 [Example 100, {3-[8-Fluoro-2-(4-phenyl-butyryl)-1,2,3,4-tetrahydro-isoquinolin-5-yl]-4-methoxy-phenyl}-acetic acid]
64.7 nM	COc1ccc(CC(=O)O)cc1-c1ccc(F)c2c1CCN(C(=O)CCc1ccccc1)C2 [Example 101, {3-[8-Fluoro-2-(3-phenyl-propionyl)-1,2,3,4-tetrahydro-isoquinolin-5-yl]-4-methoxy-phenyl}-acetic acid]
43 nM	COc1ccc(CC(=O)O)cc1-c1ccc(F)c2c1CCN(C(=O)CCOc1ccccc1)C2 [Example 102, {3-[8-Fluoro-2-(3-phenoxy-propionyl)-1,2,3,4-tetrahydro-isoquinolin-5-yl]-4-methoxy-phenyl}-acetic acid]
69.2 nM	COc1ccc(CC(=O)O)cc1-c1ccc(F)c2c1CCN(C(=O)COCc1ccccc1Cl)C2 [Example 103, (3-{2-[2-(2-Chloro-benzyloxy)-acetyl]-8-fluoro-1,2,3,4-tetrahydro-isoquinolin-5-yl}-4-methoxy-phenyl)-acetic acid]
21.3 nM	COc1ccc(CC(=O)O)cc1-c1ccc(F)c2c1CCN(C(=O)CCN1CCCc3ccccc31)C2 [Example 104, {3-[2-(3-3,4-Dihydro-2H-quinolin-1-yl-propionyl)-8-fluoro-1,2,3,4-tetrahydro-isoquinolin-5-yl]-4-methoxy-phenyl}-acetic acid]
17.7 nM	COc1ccc(CC(=O)O)cc1-c1ccc(F)c2c1CCN(C(=O)CCc1cn(C)c3ccccc13)C2 [Example 105, (3-{8-Fluoro-2-[3-(1-methyl-1H-indol-3-yl)-propionyl]-1,2,3,4-tetrahydro-isoquinolin-5-yl}-4-methoxy-phenyl)-acetic acid]
18.3 nM	COc1ccc(CC(=O)O)cc1-c1ccc(F)c2c1CN(C(=O)C[C@H](C)c1ccccc1)CC2 [Example 107, {3-[5-Fluoro-2-((S)-3-phenyl-butyryl)-1,2,3,4-tetrahydro-isoquinolin-8-yl]-4-methoxy-phenyl}-acetic acid]
172 nM	COc1ccc(CC(=O)O)cc1-c1ccc(F)c2c1CN(C(=O)C1Cc3ccccc3C1)CC2 [Example 110, {3-[5-Fluoro-2-(indane-2-carbonyl)-1,2,3,4-tetrahydro-isoquinolin-8-yl]-4-methoxy-phenyl}-acetic acid]
8.11 nM	COc1ccc(CC(=O)O)cc1-c1ccc(F)c2c1CN(C(=O)CC1Cc3ccccc3C1)CC2 [Example 111, {3-[5-Fluoro-2-(2-indan-2-yl-acetyl)-1,2,3,4-tetrahydro-isoquinolin-8-yl]-4-methoxy-phenyl}-acetic acid]
5.41 nM	COc1ccc(CC(=O)O)cc1-c1ccc(F)c2c1CN(C(=O)CCCc1ccccc1)CC2 [Example 117, {3-[5-Fluoro-2-(4-phenyl-butyryl)-1,2,3,4-tetrahydro-isoquinolin-8-yl]-4-methoxy-phenyl}-acetic acid]
38.6 nM	COc1ccc(CC(=O)O)cc1-c1ccc(F)c2c1CN(C(=O)CCC(=O)c1ccccc1)CC2 [Example 118, {3-[5-Fluoro-2-(4-oxo-4-phenyl-butyryl)-1,2,3,4-tetrahydro-isoquinolin-8-yl]-4-methoxy-phenyl}-acetic acid]
69.5 nM	COc1ccc(CC(=O)O)cc1-c1ccc(F)c2c1CN(C(=O)Cc1cn(C)c3ccccc13)CC2 [Example 119, (3-{5-Fluoro-2-[2-(1-methyl-1H-indol-3-yl)-acetyl]-1,2,3,4-tetrahydro-isoquinolin-8-yl}-4-methoxy-phenyl)-acetic acid]
47.2 nM	COc1ccc(CC(=O)O)cc1-c1ccc(F)c2c1CN(C(=O)Cc1noc3ccccc13)CC2 [Example 121, {3-[2-(2-Benzo[d]isoxazol-3-yl-acetyl)-5-fluoro-1,2,3,4-tetrahydro-isoquinolin-8-yl]-4-methoxy-phenyl}-acetic acid]
